Results reported in ChEMBL document CHEMBL3739371, “Small molecules enhance functional O-mannosylation of Alpha-dystroglycan” (Bioorg Med Chem, 2015).

biological target: T1, Dystroglycan 1 (Mus musculus) (UniProt Q62165); experiment: Increase of functional O-mannosylation of alpha-dystroglycan in mouse C2C12 cells expressing LARGE at 10 uM after 48 hrs by alpha-screen assay relative to control; assay type: cell-based
T1 sequence (whole entry): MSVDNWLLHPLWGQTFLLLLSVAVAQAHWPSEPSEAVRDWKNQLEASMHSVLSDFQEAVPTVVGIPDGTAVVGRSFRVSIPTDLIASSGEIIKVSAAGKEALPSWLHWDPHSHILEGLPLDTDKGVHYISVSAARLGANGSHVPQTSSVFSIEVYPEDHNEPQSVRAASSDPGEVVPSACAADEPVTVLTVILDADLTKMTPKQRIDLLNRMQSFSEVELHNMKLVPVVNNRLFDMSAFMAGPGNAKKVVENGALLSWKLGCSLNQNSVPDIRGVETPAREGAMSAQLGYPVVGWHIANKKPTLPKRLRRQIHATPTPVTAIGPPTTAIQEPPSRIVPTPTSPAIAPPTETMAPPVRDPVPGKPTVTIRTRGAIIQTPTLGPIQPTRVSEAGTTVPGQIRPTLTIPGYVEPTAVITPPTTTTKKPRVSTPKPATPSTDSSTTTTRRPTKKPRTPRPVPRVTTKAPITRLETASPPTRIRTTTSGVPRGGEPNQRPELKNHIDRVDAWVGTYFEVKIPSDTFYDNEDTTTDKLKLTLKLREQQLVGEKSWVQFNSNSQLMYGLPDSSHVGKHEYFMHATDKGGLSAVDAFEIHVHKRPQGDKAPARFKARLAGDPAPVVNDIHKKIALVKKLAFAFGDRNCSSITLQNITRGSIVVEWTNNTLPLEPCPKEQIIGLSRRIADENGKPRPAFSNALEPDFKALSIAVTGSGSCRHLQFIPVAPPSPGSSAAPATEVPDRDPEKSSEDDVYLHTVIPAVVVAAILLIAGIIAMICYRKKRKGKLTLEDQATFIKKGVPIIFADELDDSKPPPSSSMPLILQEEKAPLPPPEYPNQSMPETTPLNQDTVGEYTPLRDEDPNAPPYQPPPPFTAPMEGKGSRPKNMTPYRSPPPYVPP

Activity [%]	Structure (SMILES)
37	c1csc(Cn2nnnc2CN2CCN(c3nc4ccccc4s3)CC2)c1
56	CCC(c1nnnn1Cc1cccs1)N1CCN(c2nc3ccccc3s2)CC1 (configuration not stated)

biological target: T2, Dystroglycan (Cricetulus griseus) (UniProt G3H8F4); experiment: Increase of functional O-mannosylation of alpha-dystroglycan in Chinese hamster pro5 cells expressing LARGE after 48 hrs by alpha-screen assay; assay type: cell-based
T2 sequence (whole entry): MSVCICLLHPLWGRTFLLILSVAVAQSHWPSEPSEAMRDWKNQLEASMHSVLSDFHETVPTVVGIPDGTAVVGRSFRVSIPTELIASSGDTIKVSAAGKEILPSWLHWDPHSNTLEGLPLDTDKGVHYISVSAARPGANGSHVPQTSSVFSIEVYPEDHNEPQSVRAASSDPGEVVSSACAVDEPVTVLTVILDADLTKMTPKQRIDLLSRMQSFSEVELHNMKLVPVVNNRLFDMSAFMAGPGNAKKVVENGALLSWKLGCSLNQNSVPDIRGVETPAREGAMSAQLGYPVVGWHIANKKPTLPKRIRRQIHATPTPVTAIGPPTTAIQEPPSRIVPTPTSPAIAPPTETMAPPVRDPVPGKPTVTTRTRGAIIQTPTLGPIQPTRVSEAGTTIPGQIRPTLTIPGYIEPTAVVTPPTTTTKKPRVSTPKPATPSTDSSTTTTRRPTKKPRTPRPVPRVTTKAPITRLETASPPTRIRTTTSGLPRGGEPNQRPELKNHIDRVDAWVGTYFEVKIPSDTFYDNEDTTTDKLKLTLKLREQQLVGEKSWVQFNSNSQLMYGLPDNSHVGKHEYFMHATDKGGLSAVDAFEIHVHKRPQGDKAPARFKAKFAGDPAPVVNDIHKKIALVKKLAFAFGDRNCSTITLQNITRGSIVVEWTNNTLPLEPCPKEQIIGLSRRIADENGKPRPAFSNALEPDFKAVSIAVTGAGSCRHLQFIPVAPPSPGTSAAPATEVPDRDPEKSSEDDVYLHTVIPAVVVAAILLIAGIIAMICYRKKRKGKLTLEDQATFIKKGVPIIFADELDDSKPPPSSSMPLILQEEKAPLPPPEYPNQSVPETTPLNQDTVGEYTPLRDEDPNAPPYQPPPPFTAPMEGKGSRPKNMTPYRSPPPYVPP

Structure (SMILES)	EC1.5 [µM]
CC(C)CC(c1nnnn1Cc1cccs1)N1CCN(c2nc3ccccc3s2)CC1 (configuration not stated)	> 64
CCCC(c1nnnn1Cc1cccs1)N1CCN(c2nc3ccccc3s2)CC1 (configuration not stated)	34
COc1ccc(Cn2nnnc2CN2CCN(c3nc4ccccc4s3)CC2)cc1	> 64
CCC(c1nnnn1Cc1nccs1)N1CCN(c2nc3cccc(F)c3s2)CC1 (configuration not stated)	43
CCC(c1nnnn1Cc1cccs1)N1CCN(c2nc3ccc(NC(=O)c4ccccc4Cl)cc3s2)CC1 (configuration not stated)	> 64
CCC(c1nnnn1Cc1cccs1)N1CCN(c2nc3ccc(OC)cc3s2)CC1 (configuration not stated)	7.1
CCC(c1nnnn1Cc1ccco1)N1CCN(c2nc3ccccc3s2)CC1 (configuration not stated)	9.5
CCC(c1nnnn1Cc1cccs1)N1CCN(c2nc3cccc(Br)c3s2)CC1 (configuration not stated)	22
c1csc(Cn2nnnc2CN2CCN(c3nc4ccccc4s3)CC2)c1	8.7
CCC(c1nnnn1Cc1cccs1)N1CCN(c2nc3ccc([N+](=O)[O-])cc3s2)CC1 (configuration not stated)	32
CCC(c1nnnn1Cc1cccs1)N1CCN(c2nc3c(F)cc(F)cc3s2)CC1 (configuration not stated)	17
CCC(c1nnnn1-c1ccccc1)N1CCN(c2nc3ccccc3s2)CC1 (configuration not stated)	> 64
CCC(c1ccc(-c2nc3ccccc3s2)cc1)c1nnnn1Cc1cccs1 (configuration not stated)	49
CCC(c1nnnn1Cc1cccs1)N1CCN(c2nc3cc(F)ccc3s2)CC1 (configuration not stated)	> 64
CCC(c1nnnn1Cc1cccs1)N1CCC(c2nc3ccccc3s2)CC1 (configuration not stated)	9.6
CCC(c1nnnn1Cc1cccs1)N1CCN(c2nc3ccc(F)cc3s2)CC1 (configuration not stated)	21
CCC(c1nnnn1CCc1cccs1)N1CCN(c2nc3cccc(F)c3s2)CC1 (configuration not stated)	64
CCC(c1nnnn1Cc1cccs1)N1CCN(c2nc3ccccc3s2)CC1 (configuration not stated)	4.6
CCC(c1nnnn1Cc1cccs1)N1CCN(c2nc3cc([N+](=O)[O-])cc(F)c3s2)CC1 (configuration not stated)	25
CC(c1nnnn1Cc1cccs1)N1CCN(c2nc3ccccc3s2)CC1 (configuration not stated)	7.2
CC(C)n1nnnc1CN1CCN(c2nc3ccccc3s2)CC1	> 64
CCC(c1cnnn1Cc1cccs1)N1CCN(c2nc3ccccc3s2)CC1 (configuration not stated)	48
c1ccc2sc(N3CCN(Cc4nnnn4C4CCCC4)CC3)nc2c1	> 64
Fc1ccc(Cn2nnnc2CN2CCN(c3nc4ccccc4s3)CC2)cc1	> 64
CCC(c1nnnn1Cc1cccs1)N1CCN(c2nc3ccccc3o2)CC1 (configuration not stated)	9.5
CCC(c1nnnn1Cc1cccs1)N1CCN(c2nc3cc(OC)c(OC)c(OC)c3s2)CC1 (configuration not stated)	6.5
CCC(c1nnnn1Cc1cccs1)N1CCN(c2nc3c(N)cccc3s2)CC1 (configuration not stated)	16
O=C(c1nnnn1Cc1cccs1)N1CCN(c2nc3ccccc3s2)CC1	> 64
CCC(c1nnnn1Cc1cccs1)N1CCN(c2nc3cccc(C(F)(F)F)c3s2)CC1 (configuration not stated)	25
CCC(NCCNc1nc2cccc(F)c2s1)c1nnnn1Cc1cccs1 (configuration not stated)	> 64

Second part, the molecule after the results:

EC1.5 [µM]	Structure (SMILES)
4.3	CCC(c1nnnn1Cc1cccs1)N1CCN(c2nc3ccc(NC(=O)CCCC[C@@H]4SC[C@@H]5NC(=O)N[C@@H]54)cc3s2)CC1 (some centres not stated)
17	CCC(c1nnnn1Cc1cccs1)N1CCN(c2nc3ccccc3[nH]2)CC1 (configuration not stated)
28	CCC(c1nnnn1Cc1cccs1)N1CCN(c2nc3ccc(C(=O)OC)cc3s2)CC1 (configuration not stated)
> 64	CCC(c1nnnn1Cc1cccs1)N1CCN(c2nc3ccc(-c4ccccc4)cc3s2)CC1 (configuration not stated)
2.6	CCC(c1nnnn1Cc1cccs1)N1CCN(c2nc3cccc(F)c3s2)CC1 (configuration not stated)
22	CCC(c1nnnn1Cc1cccs1)N1CCN(c2nc3cccc(C(=O)O)c3s2)CC1 (configuration not stated)
21	CCC(c1nnnn1Cc1cccs1)N1CCN(c2nc3cccc(O)c3s2)CC1 (configuration not stated)
14	CCC(c1nnnn1Cc1cccs1)N1CCN(c2nc3cccc(C(=O)OC)c3s2)CC1 (configuration not stated)
64	CCC(c1nnnn1Cc1cccs1)N1CCN(Cc2nc3ccccc3s2)CC1 (configuration not stated)
19	CCC(c1nnnn1Cc1cccs1)N1CCN(c2nc3ccc(C(=O)O)cc3s2)CC1 (configuration not stated)
> 64	CCC(c1nnnn1Cc1cccs1)N1CCN(c2nc3ccc(NC(=O)c4ccccc4C)cc3s2)CC1 (configuration not stated)
> 64	CCC(c1nnnn1Cc1cccs1)N1CCN(c2nc3cc([N+](=O)[O-])ccc3s2)CC1 (configuration not stated)
3.4	CCC(c1nnnn1Cc1cccs1)N1CCN(c2nc3cc(N)ccc3s2)CC1 (configuration not stated)
28	CCC(c1nnnn1Cc1cccs1)N1CCN(C2=Nc3ccccc3C2)CC1 (configuration not stated)
4.9	CCC(c1nnnn1Cc1cccs1)N1CCN(c2nc3c(F)cccc3s2)CC1 (configuration not stated)
15	CCC(c1nnnn1Cc1cccs1)N1CCN(c2nc3ccc(C)cc3s2)CC1 (configuration not stated)
13	CCC(c1nnnn1Cc1cccs1)N1CCN(c2nc3ccc(Cl)cc3s2)CC1 (configuration not stated)
> 64	c1ccc(C(c2nnnn2Cc2cccs2)N2CCN(c3nc4ccccc4s3)CC2)cc1 (configuration not stated)
11	CCC(c1nnnn1Cc1cccs1)N1CCN(c2nc3ccc(N)cc3s2)CC1 (configuration not stated)
> 64	CCC(c1nnnn1Cc1ccccc1)N1CCN(c2nc3ccccc3s2)CC1 (configuration not stated)
